Earlier results in patent publication US6461603B2, “Water-soluble polymer conjugates of artelinic acid” (Shearwater Corporation, priority 2000, dated 2002).

water solubility (background statement)	solubility at physiological pH (physiological pH, higher pH required for desirable solubility)	SMILES
low		C[C@@H]1CC[C@H]2[C@@H](C)C(OCc3ccc(C(=O)O)cc3)O[C@@H]3O[C@]4(C)CC[C@@H]1[C@]32OO4 (some centres unmarked) [artelinic acid]
	not highly soluble	C[C@H]1[C@@H](OCc2ccc(C(=O)O)cc2)O[C@@H]2O[C@]3(C)CC[C@H]4[C@H](C)CC[C@@H]1[C@@]24OO3 [sodium artelinate]
